Results published in patent publication US5843966A, “Piperidine derivatives” (Glaxo Group Limited, priority 1993, dated 1998).
Structures can show the parent of a compound that is named as a salt.

System: radiation-induced emesis in the ferret
Test: Inhibition of radiation-induced emesis in the ferret
Assay type: in vivo
Details: compound administered 1.5 hours prior to irradiation
Method: In this model of emesis the onset of retching and vomiting occurs approximately 20 minutes after whole body irradiation (2 Grey.ident.200 Rads). The test compound is administered (e.g. i.p, p.o., i.v., s.c) immediately after irradiation and its effect on emesis determined by comparison with appropriate controls.
Alternatively, the test compounds may be administered before irradiation or before treatment with an emetogen, for example 1.5, 3 or 6 hours before irradiation.

| Structure (SMILES) | inhibition of radiation-induced emesis (0.1 mg/kg s.c.) | inhibition of radiation-induced emesis (0.03 mg/kg s.c.) |
| --- | --- | --- |
| COc1ccc(-n2cnnn2)cc1CN[C@H]1CCCN[C@H]1c1ccccc1 [Example 2] | inhibited radiation-induced emesis | – |
| COc1ccc(-n2nnnc2C(F)(F)F)cc1CN[C@H]1CCCN[C@H]1c1ccccc1 [Example 7, [2-Methoxy-5-(5-trifluoromethyl-tetrazol-1-yl)-benzyl]-(2S,3S]-2-phenyl-piperidin-3-yl)-amine dihydrochloride] | – | inhibited radiation-induced emesis |
